Reference: US20240398817A1, “CARDIO- AND RENOSAFE ANTIDIABETIC THERAPY” (priority 2018, published 2024)

Tested on: patients with type 2 diabetes at high vascular risk
Experiment: Cardiovascular and Renal Outcomes Trial: linagliptin 5 mg once daily vs placebo on top of standard of care
Format: in vivo
Settings: for Hazard ratio for hospitalised heart failure: vs placebo
Protocol: The effect of linagliptin on cardiovascular risk in adult patients with type 2 diabetes mellitus and with increased CV risk evidenced by a history of established macrovascular or renal disease (e.g. as defined herein) was evaluated in a multi-center, multi-national, randomized, double-blind parallel group trial. The trial compared the risk of experiencing a major adverse cardiovascular event (MACE) between linagliptin and placebo when these were added to and used concomitantly with standard of care treatments for diabetes (HbA1c), cardiovascular risk factors and renal disease.
The primary endpoint in this trial was the time to first occurrence of three point (3P) MACE. A major adverse cardiac event was defined as a cardiovascular death or a nonfatal myocardial infarction (MI) or a nonfatal stroke. The statistical analysis plan tested for non-inferiority for the occurrence of (3P) MACE. […] The secondary endpoint was a renal composite, defined as renal death or sustained end stage renal disease or sustained decrease of 40% or more in eGFR.
Type 2 diabetes patient with insufficient glycemic control (naïve or pre-treated with any antidiabetic background medication, excluding treatment with GLP-1 receptor agonists, DPP-4inhibitors or SGLT-2 inhibitors if ≥consecutive 7 days, e.g. having HbA1c 6.5-10%), and high risk of cardiovascular events, e.g. defined by: • albuminuria (micro or macro) and previous macrovascular disease: e.g. defined according to Condition I as indicated below; • and/or • impaired renal function: e.g. as defined according to Condition II as indicated below;
Background and aims: People with type 2 diabetes (T2D) are at increased risk for hospitalization for heart failure (hHF), particularly in the setting of concomitant cardiovascular (CV) and/or kidney disease. […] Here we present analyses of HF outcomes with the DPP-4 inhibitor linagliptin (LINA) vs. placebo (PBO) from a Cardiovascular and Renal Outcomes Trial assessing cardiovascular safety and renal microvascular outcome in patients with type 2 diabetes at high vascular risk, a large CV outcomes trial that enrolled participants with T2D at high risk for hHF due to concomitant CV and/or chronic kidney disease. Materials and methods: People with T2D and concomitant CV and/or kidney disease were randomized to receive LINA 5 mg, or PBO once daily (1:1), on top of standard of care. All hHF, CV outcomes, and deaths were centrally adjudicated, with individual and composite HF-related outcomes analyses comparing LINA vs. placebo. Investigator-reported HF-related adverse events, whether or not confirmed by adjudication, were also analyzed. A Cox proportional hazards model adjusting for region and history of HF was used for analyses of first events. Recurrent hHF events were analyzed using a negative binomial model.
Methods: The present Cardiovascular and Renal Outcomes Trial randomized people with T2D and i) concomitant CV disease with UACR >30 mg/g or ii) prevalent CKD (i.e. GFR <45 ml/min/1.73m2 and/or UACR >200 mg/g) to receive the DPP-4 inhibitor linagliptin (5 mg) or placebo once daily in a double-blind fashion. The primary CV endpoint was 3P-MACE, with a key secondary kidney endpoint (adjudicated ESKD, renal death, or sustained ≥40% decrease in eGFR from baseline) and other renal outcomes (including albuminuria and eGFR slope) also assessed. Subgroups were assessed by baseline kidney function (eGFR ≥/<45 ml/min/1.73m2and eGFR ≥/<30, 45 or 60 ml/min/1.73m2).
Adults with type 2 diabetes, HbA1c 6.5-10.0% inclusive, and high CV risk were eligible for inclusion. […] Macrovascular disease eligibility criteria was based on documented and confirmed history of myocardial infarction, coronary artery disease, stroke, carotid artery disease, or peripheral artery disease. Participants with end-stage kidney disease (ESKD), defined as eGFR <15 or requiring maintenance dialysis, were excluded.

[1] = CKD prognosis by KDIGO Very high
[2] = Calcium channel blockers (CCB) No
[3] = Calcium channel blockers (CCB) Yes
[4] = Cardiorenal risk: Albuminuria and previous macrovascular disease plus eGFR 45-75 mL/min/1.73 m^2 with an UACR >200 mg/g
[5] = Cardiorenal risk: Albuminuria and previous macrovascular disease plus renal impairment (eGFR 15-<45 mL/min/1.73 m^2 with any UACR mg/g)
[6] = Cardiorenal risk: Albuminuria and previous macrovascular disease without eGFR>45 mL/min/1.73 m2
[7] = Duration of type 2 diabetes >5 to <10 years
[8] = Duration of type 2 diabetes ≤5 years

## CC#CCn1c(N2CCC[C@@H](N)C2)nc2c1c(=O)n(Cc1nc(C)c3ccccc3n1)c(=O)n2C [Linagliptin, 1-[(4-methyl-quinazolin-2-yl)methyl]-3-methyl-7-(2-butyn-1-yl)-8-(3-(R)-amino-piperidin-1-yl)-xanthine]
Body mass index ≥30 kg/m^2
  3-point MACE: hazard ratio vs placebo: 1.06
  3-point MACE: patients with event/patients analyzed: 243/1978
  Key secondary kidney outcome: hazard ratio vs placebo: 0.96
  Key secondary kidney outcome: patients with event/patients analyzed: 165/1978
  Patients with event/patients analysed, hospitalised heart failure: 131/1978
  Hazard ratio for hospitalised heart failure: 0.86
CKD prognosis by KDIGO High
  3-point MACE: hazard ratio vs placebo: 1.05
  3-point MACE: patients with event/patients analyzed: 111/995
  Key secondary kidney outcome: patients with event/patients analyzed: 57/995
  Patients with event/patients analysed, hospitalised heart failure: 45/995
CKD prognosis by KDIGO Low
  3-point MACE: hazard ratio vs placebo: 1.13
  3-point MACE: patients with event/patients analyzed: 11/232
  Key secondary kidney outcome: patients with event/patients analyzed: 8/232
  Patients with event/patients analysed, hospitalised heart failure: 2/232
CKD prognosis by KDIGO Medium
  3-point MACE: hazard ratio vs placebo: 0.89
  3-point MACE: patients with event/patients analyzed: 61/766
  Key secondary kidney outcome: patients with event/patients analyzed: 14/766
  Patients with event/patients analysed, hospitalised heart failure: 18/766
[1]
  3-point MACE: hazard ratio vs placebo: 1.04
  3-point MACE: patients with event/patients analyzed: 250/1499
  Key secondary kidney outcome: patients with event/patients analyzed: 248/1499
  Patients with event/patients analysed, hospitalised heart failure: 144/1499
[2]
  Patients with event/patients analysed, hospitalised heart failure: 113/2061
  Hazard ratio for hospitalised heart failure: 0.86
[3]
  Patients with event/patients analysed, hospitalised heart failure: 96/1433
  Hazard ratio for hospitalised heart failure: 0.94
Calcium channel blockers No
  3-point MACE: hazard ratio vs placebo: 0.91
  3-point MACE: patients with event/patients analyzed: 239/2061
  Key secondary kidney outcome: hazard ratio vs placebo: 1.03
  Key secondary kidney outcome: patients with event/patients analyzed: 155/2061
Calcium channel blockers Yes
  3-point MACE: hazard ratio vs placebo: 1.21
  3-point MACE: patients with event/patients analyzed: 195/1433
  Key secondary kidney outcome: hazard ratio vs placebo: 1.05
  Key secondary kidney outcome: patients with event/patients analyzed: 172/2860
Cardiorenal risk Cat A
  3-point MACE: hazard ratio vs placebo: 0.97
  3-point MACE: patients with event/patients analyzed: 117/1361
  Key secondary kidney outcome: hazard ratio vs placebo: 1.22
  Key secondary kidney outcome: patients with event/patients analyzed: 38/1361
Cardiorenal risk Cat B
  3-point MACE: hazard ratio vs placebo: 0.92
  3-point MACE: patients with event/patients analyzed: 86/394
  Key secondary kidney outcome: hazard ratio vs placebo: 0.79
  Key secondary kidney outcome: patients with event/patients analyzed: 51/394
Cardiorenal risk Cat C
  3-point MACE: hazard ratio vs placebo: 0.76
  3-point MACE: patients with event/patients analyzed: 33/253
  Key secondary kidney outcome: hazard ratio vs placebo: 1.53
  Key secondary kidney outcome: patients with event/patients analyzed: 23/253
Cardiorenal risk Cat D
  3-point MACE: hazard ratio vs placebo: 1.12
  3-point MACE: patients with event/patients analyzed: 163/1153
  Key secondary kidney outcome: hazard ratio vs placebo: 1.01
  Key secondary kidney outcome: patients with event/patients analyzed: 180/1153
Cardiorenal risk Cat E
  3-point MACE: hazard ratio vs placebo: 1.13
  3-point MACE: patients with event/patients analyzed: 32/309
  Key secondary kidney outcome: hazard ratio vs placebo: 1.04
  Key secondary kidney outcome: patients with event/patients analyzed: 35/309
[4]
  Patients with event/patients analysed, hospitalised heart failure: 67/647
  Hazard ratio for hospitalised heart failure: 0.81
[5]
  Patients with event/patients analysed, hospitalised heart failure: 95/14612
  Hazard ratio for hospitalised heart failure: 0.86
[6]
  Patients with event/patients analysed, hospitalised heart failure: 46/1361
  Hazard ratio for hospitalised heart failure: 1.19
Diuretics No
  3-point MACE: hazard ratio vs placebo: 1.15
  3-point MACE: patients with event/patients analyzed: 159/1602
  Key secondary kidney outcome: hazard ratio vs placebo: 1.06
  Key secondary kidney outcome: patients with event/patients analyzed: 129/1602
  Patients with event/patients analysed, hospitalised heart failure: 53/1602
  Hazard ratio for hospitalised heart failure: 1.26
Diuretics Yes
  3-point MACE: hazard ratio vs placebo: 0.97
  3-point MACE: patients with event/patients analyzed: 275/1892
  Key secondary kidney outcome: hazard ratio vs placebo: 1.04
  Key secondary kidney outcome: patients with event/patients analyzed: 198/1892
  Patients with event/patients analysed, hospitalised heart failure: 156/1892
  Hazard ratio for hospitalised heart failure: 0.83
[7]
  3-point MACE: hazard ratio vs placebo: 1.01
  3-point MACE: patients with event/patients analyzed: 73/696
  Key secondary kidney outcome: hazard ratio vs placebo: 0.94
  Key secondary kidney outcome: patients with event/patients analyzed: 56/699
  Patients with event/patients analysed, hospitalised heart failure: 42/696
  Hazard ratio for hospitalised heart failure: 0.96
[8]
  3-point MACE: hazard ratio vs placebo: 0.98
  3-point MACE: patients with event/patients analyzed: 45/521
  Key secondary kidney outcome: hazard ratio vs placebo: 1.97
  Key secondary kidney outcome: patients with event/patients analyzed: 41/521
  Patients with event/patients analysed, hospitalised heart failure: 18/521
  Hazard ratio for hospitalised heart failure: 0.82
Duration of type 2 diabetes ≥10 years
  3-point MACE: hazard ratio vs placebo: 1.03
